Entries after “also recorded” stand apart in the source; their conditions may differ.
How the values were obtained:
[1] = test system: NQO1 in A549 and H460 cells; experiment: ES936 pretreatment of cells before NIR-ASM (microscopy and flow cytometry); assay type: cell-based, human
Description: Chemical and genetic approaches confirm the specificity of NIR-ASM for NQO1 in live tumor cells. A fluorescence probe with high sensitivity, simple operation, and excellent specificity will be an asset for the detection of NQO1 in situ. To assess the substrate selectivity of NIR-ASM for NQO1, both A549 and H460 cells were pretreated with 100 nM of NQO1 inhibitor ES936 for 6 h, before incubating with 10 μM NIR-ASM. […] The effect of ES936 on endogenous NQO1 activity and subsequent reactivity with NIR-ASM was also determined by flow cytometry. […] The presence of NQO1 protein in the transfected MDA-MB-231 cells and its absence in the untransfected control was confirmed by immunoblotting (FIG. 13E). Subsequently, the NQO1-negative and positive MDA-MB-231 cell lines were incubated with NIR-ASM and analyzed by fluorescence microscopy and flow cytometry for activation of the probe.
Fluorescence imaging. Both cancer and normal cells were seeded into 6-well plates and cultured overnight in respective media at 37° C. […] Finally, the medium was replaced with PBS and the live cells were imaged using a multiphoton confocal fluorescence microscope (λex/em=488/644 nm). […]
Flow cytometry analysis. The endogenous NQO1 activity of cancer cells and normal cells was determined by flow cytometry after NIR-ASM exposure. […] About 1×10^4 cells were analyzed by flow cytometry (λex=488 nm).

hNQO1 in T98G cells = experiment: ES936 pretreatment of cells before NQ-DCP, fluorescence microscopy; assay type: cell-based, human; details: 100 nM ES936 for 6 h, then 10 μM NQ-DCP
Description: Evaluation of Specificity in Cancer Cells. To show the substrate selectivity of NQ-DCP for hNQO1, T98G cells were pretreated with 100 nM of NQO1 inhibitor ES936 for 6 h and incubated 10 μM of NQ-DCP.
Cell Culture, Fluorescence Imaging, and Flow Cytometry Analysis. Brain tumor cells and astrocytes were grown in Dulbecco's modified Eagle's (DMEM) medium containing 10% Fetal Bovine Serum and 1% penicillin/streptomycin in a humidified atmosphere of 5% CO2 at 37° C. For fluorescence imaging, initially, cells were seeded into 6-well plate and cultured overnight in respective media at 37° C. Media was replaced with fresh medium containing 10 μM NQ-DCP and incubated at 37° C. for 60 min and then the medium was replaced with PBS and live cells were imaged using a fluorescence microscope. For inhibitor study, cells were pretreated with NQO1 inhibitor ES936 (100 nM) for 6 h before adding the NQ-DCP. For determining endogenous hNQO1 activity in cancer cells using flow cytometry, about 10×10^4 cells were incubated with 10 μM of NQ-DCP for 60 min and were analyzed using flow cytometry.

NQO1 [2] = target: T1, NQO1 (Homo sapiens, UniProt P15559); experiment: Inhibitory effect of ES936 on hNQO1 activation of NQ-DCP; assay type: biochemical; details: ES936 0-100 nM, enzyme pre-treated, 30 min
T1 sequence (P15559 whole entry): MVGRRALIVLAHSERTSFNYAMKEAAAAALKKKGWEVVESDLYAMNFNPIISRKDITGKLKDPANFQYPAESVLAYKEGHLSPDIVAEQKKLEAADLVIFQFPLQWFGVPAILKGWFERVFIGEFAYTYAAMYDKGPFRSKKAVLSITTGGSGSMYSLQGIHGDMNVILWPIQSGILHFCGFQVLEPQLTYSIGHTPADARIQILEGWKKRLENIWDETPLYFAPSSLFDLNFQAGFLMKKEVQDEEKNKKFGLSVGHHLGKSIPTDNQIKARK
Description: Selectivity of NQ-DCP Towards hNQO1. The specificity of NQ-DCP probe towards hNQO1 was studied by determining its reactivity towards various biomolecules such as the glutathione (GSH, 1 mM), aldehyde dehydrogenase 1 (ALDH1A1, 2.5 μg/mL), gamma-glutamyl transferase (GGT, 10 U), glutathione Peroxidase (GPx, 10 U), apurinic/apyrimidinic endonuclease (APE1, 10 U), cystathionine-β-synthase (CBS, 2 μg/mL), cathepsin L (CTSL, 2 μg/mL), glutathione S-transferase (GST-pi, 2 μg/mL), nitroreductase (NTR, 2 μg/mL) and NADH (100 μM) alone or the combination of and NQO1 (2.5 μg/mL). […] To gain more insight into the specificity of the probe towards hNQO1, the enzyme was pre-treated with ES936 (0-100 nM), a well-known hNQO1 inhibitor [39] and then incubated with NQ-DCP.
Evaluation of Inhibitor Efficiency. To evaluate the inhibitory efficiency of ES936 towards hNQO1 under in vitro conditions, different concentrations of ES936 (0-100 nM) incubated with 2.0 μg/mL of NQO1, 100 μM NADPH in PBS with 0.1% BSA (pH 7.4) at 37° C. Fluorescence emission was recorded after 30 min of incubation (λex=420 nm).

NQO1 [3] = target: T1, NQO1; experiment: Effect of NQO1 inhibitor ES936 on NQO1 activation of NIR-ASM; assay type: biochemical; design: purchased Sigma-Aldrich D1515; details: ES936 0-100 nM, NQO1 pretreated
Description: Selectivity of NIR-ASM. The selectivity of NIR-ASM probe was studied by examining its reactivity towards various biomolecules and antioxidant enzymes such as the glutathione, aldehyde dehydrogenase 1, gamma-glutamyl transferase, glutathione peroxidase, apurinic/apyrimidinic endonuclease, cystathionine-β-synthase, cathepsin L, glutathione S-transferase, NADH alone and the combination of nitroreductase and NQO1.
NQO1 inhibitor efficiency evaluation. NQO1 inhibitor efficiency was evaluated using specific NQO1 inhibitor ES936 under in vitro conditions. 2.5 μg/mL of NQO1 was incubated with different concentrations of ES936 (0-100 nM) in the presence of 100 μM NADH at 37° C. Fluorescence emission was recorded after 30 min of incubation (λex. 460 nm).

[4] = Photophysical property of the fluorophore ASM; assay type: physicochemical
Description: Design, preparation, and characterization of the NIR-ASM fluorescent probe. Imaging agents emitting near-infrared fluorescence enable deeper penetration with low phototoxicity and high signal-to-background ratios due to minimal tissue auto-fluorescence, which is a prime requirement for in vivo imaging studies.^40,41 Accordingly, the inventors designed an NQO1 activatable near-infrared fluorescent probe (NIR-ASM) by attaching a trimethyl-lock QPA with (E)-2-(3-(4-aminostyryl)-5,5-dimethylcyclohex-2-en-1-ylidene)malononitrile (ASM) for molecular imaging of cancer cells in vivo (FIG. 9A). The fluorophore ASM was used in this study because of its strong NIR fluorescence signal with substantial Stokes shift (˜190 nm), to eliminate background interferences by avoiding reabsorption of emitted photons. […] NQO1 is a ubiquitous cytosolic two-electron reductase that catalyzes the reduction of quinone substrates in the presence of NADH. Upon interaction with NQO1 in the presence of NADH, QPA present in non-fluorescent NIR-ASM undergoes two-electron reduction to form an o-hydroxydihydrocinnamic acid derivative that undergoes rapid lactonization under physiological conditions to yield dihydrocoumarin, 6-hydroxy-4,4,5,7,8-pentamethylchroman-2-one (HPC) along with highly fluorescent ASM. […]

Structure (SMILES) | effect on NIR-ASM fluorescence in cells (microscopy) ([1]; 100 nM ES936 for 6 h, then 10 μM NIR-ASM) | effect on NIR-ASM induced fluorescence intensity (flow cytometry) ([1]; 100 nM ES936 pretreated tumor cells) | effect on NQ-DCP fluorescence in cells (hNQO1 in T98G cells) | effect on the fluorescence response of NQ-DCP to hNQO1 (NQO1 [2]) | effect on the fluorescence response of NIR-ASM to NQO1 (NQO1 [3]) | Stokes shift [4] [nm]
COC1=CC(=O)c2c(c(COc3ccc([N+](=O)[O-])cc3)c(C)n2C)C1=O [ES936] | completely blocked the NIR-ASM fluorescence | significantly decreased | completely blocked the NQ-DCP fluorescence | effectively suppressed the fluorescence response in a concentration-dependent manner; also recorded: completely blocked the NQ-DCP fluorescence | effectively suppressed the fluorescence response in a concentration-dependent fashion | –
CC1(C)CC(/C=C/c2ccc(N)cc2)=CC(=C(C#N)C#N)C1 [ASM, (E)-2-(3-(4-aminostyryl)-5,5-dimethylcyclohex-2-en-1-ylidene) malononitrile] | – | – | – | – | – | ~190

Source: patent US11957766B2, “HNQO1-activatable fluorescent probe for imaging cancer cells in-vitro and in-vivo” (Texas Tech University System, priority 2019, dated 2024)
